Measured values taken from paper PMC11437215 (Nature Communications, 2024).

Tests used:
[1] = system: tetramer-binding CD4+ T cells; experiment: Flow cytometry of anergy markers CD73 and FR4 in tetramer-binding CD4+ T cells; type: cell-based, NOD and NOD.Ins2−/− mice; details: SLOs (Supplementary Fig. 9a)
[2] = system: tetramer-binding CD4+ T cells; experiment: Flow cytometry of FOXP3 and CD44 in tetramer-binding CD4+ T cells; type: cell-based, NOD and NOD.Ins2−/− mice; details: NOD mice (Fig. 6b)
[3] = system: 9B9, IIT-3, CP1- and CP2-specific CD4+ T cell hybridomas; type: cell-based, NOD and NOD.B16A mice; details: mTECs from NOD or NOD.B16A mice
[4] = system: 9B9 (G20-specific) and IIT-3 (E21-specific) CD4+ T cell hybridomas; type: cell-based, mouse; details: C3.g7 APC pulsed with antigen; IL-2 (Supplementary Fig. 1a, b)
[5] = system: 9B9, IIT-3, CP1- and CP2-specific CD4+ T cell hybridomas; type: cell-based, NOD and NOD.B16A mice; details: 8 to 10-week-old female NOD mice
[6] = system: popliteal lymph node T cells (IFNγ, IL-2); experiment: ELISPOT recall after peptide immunization; details: immunized with B:9–23 (Fig. 7c)
[7] = system: CD4+ T cell clones BDC2.5 and BDC6.9; details: cited from earlier work
[8] = system: 9B9 T cell (G20-specific); experiment: Presentation of G20 by dispersed islet cells; details: chloroquine vs PBS; B:9–23 10 µM
[9] = system: 9B9 T cell (G20-specific); experiment: Presentation of G20 by blood leukocytes after glucose challenge; type: cell-based, NOD mice
[10] = system: crinosome subcellular fraction of β cells; experiment: Crinosome peptidome by mass spectrometry; parameters: species or system NOD mice
[11] = system: insulin epitopes G20 and E21 in crinosome and DCG subcellular fractions; experiment: Granule-based antigen presentation assay: crinosome; type: cell-based, NOD mice; details: chloroquine vs PBS
[12] = system: autoimmune diabetes in female NOD mice; experiment: Diabetes development; details: chloroquine group, all PBS-treated mice became diabetic
[13] = system: crinosomes in pancreatic β cells; experiment: Electron microscopy count of crinophagic granules; type: in vivo, NOD mice
[14] = system: CD4+ T cells in SLOs; experiment: Quantification of tetramer-binding CD4+ T cells in SLOs; type: cell-based; details: SLOs of 6–8-week-old female NOD mice
[15] = system: I-A^g7; details: Q-to-E conversion; cited from earlier work
[16] = system: type 1 diabetes progression; details: autoantibody-positive (stage 1) T1D patients; cited from earlier work

For VEALYLVCG [G20], the “expression of CD73 and FR4 in the FOXP3−CD44hi subset of tetramer-binding T cells” value (shortened to “expression of CD73 and FR4”) [1] was “much less expression of CD73 and FR4” and the “FOXP3 phenotype of tetramer-binding CD4+ single-positive thymocytes” value [2] was “mostly FOXP3^− conventional T cells”.

With insulin the “presentation of E21 and G20 by mTECs pulsed with antigen” value [3] was “strong presentation of E21, whereas presentation of G20 was minimal”, the “responses of the 9B9 (G20-specific) and IIT-3 (E21-specific) hybridomas” value (from here on “responses of the 9B9”) [4] was “Only the IIT-3 but not the 9B9 T cell responded” and the “presentation of E21 and G20 by dispersed islets pulsed with antigen” value [5] was “only presentation of E21, but not G20, was enhanced”. The “T cell responses upon recall in NOD.Ins2−/− mice” value [6] was “significantly enhanced” and the “T cell responses upon recall in WT NOD mice” value [6] was “minimal”.

In the case of LQTLAL-NAARD [6.9HIP], the “expression of CD73 and FR4” value [1] is listed as “much less expression of CD73 and FR4” and the “agonist activity on CD4+ T cell clones BDC2.5 and BDC6.9” value [7] is listed as “strong agonists”.

With TEGVEALYLVCGGGS [Syn-G20] the “responses of the 9B9” value [4] was “exclusively reacted to their corresponding epitopes”.

In the case of `CCN(CC)CCCC(C)Nc1ccnc2cc(Cl)ccc12` (centres unmarked) [Chloroquine, chloroquine], the “G20 presentation by dispersed islet cells pulsed with exogenous B:9–23 peptide” value [8] is reported as “no difference”, the “presentation of G20 by blood leukocytes during pulse with exogenous B:9–23” value ([9]; chloroquine vs PBS, B:9–23 10 µM) is reported as “without affecting” and the “duration of the effect in inhibiting G20 presentation” value ([9]; preliminary experiments) is reported as “about three days”. The “overall HIP abundance in crinosomes” value ([10]; chloroquine vs PBS) was “significant decrease”, the “relative abundance of deamidated insulin C-peptides in the crinosome peptidome” value ([10]; chloroquine vs PBS) was “significant reduction” and the “number of peptides in the crinosome peptidome” value ([10]; chloroquine vs PBS, 1.2 × 10^6 β cells per condition) was “significant reduction”. For the same compound, the “HIPs identified in crinosomes” value ([10]; mice given chloroquine, ten HIPs in PBS control) was “only one HIP”, the “PTMs in the crinosome peptidome (methionine oxidation, deamidation, dehydration, phosphorylation, formylation)” value ([10]; peptide-spectra matches, chloroquine vs PBS) was “reduced” and the “effect on presentation of both epitopes in DCGs” value [11] was “did not influence”. For the same compound, the “reduction in the presentation level of both G20 and E21 in the crinosome fraction” value ([11]; male and female NOD mice) was ~ 50%, the “mice remaining diabetes free by 35 weeks of age” value [12] was “about 33%” and the “change of crinosome-like vesicles in β cells” value ([13]; male and female NOD mice, short-term chloroquine vs PBS) was “reduced by half”. The “diminishing of crinophagic granules and associated peptide production” value ([13]; young NOD mice (discussion summary)) was “about 50%”.

In the case of EALYLVCGE [E21], the “expression of CD73 and FR4” value [1] is reported as “high expression of both CD73 and FR4” and the “FOXP3 phenotype of tetramer-binding CD4+ single-positive thymocytes” value [2] is reported as “majority”.

With TQSPLLKRQLTSFIEKGQE [DBP] the “tetramer-binding cells per million CD4+ T cells” value [14] was “less than 5 per million CD4^+ T cells”.

With TEGEALYLVCGEGGS [Syn-E21] the “responses of the 9B9” value [4] was “exclusively reacted to their corresponding epitopes”, the “T cell responses upon recall in NOD.Ins2−/− mice” value [6] was “significantly enhanced” and the “T cell responses upon recall in WT NOD mice” value [6] was “minimal”.

For LQTLAL-WSRMD [2.5HIP], the “expression of CD73 and FR4” value [1] is listed as “much less expression of CD73 and FR4” and the “agonist activity on CD4+ T cell clones BDC2.5 and BDC6.9” value [7] is listed as “strong agonists”.

With ILSVHVATAASQDS [ZnT8] the “tetramer-binding cells per million CD4+ T cells” value [14] was “less than 5 per million CD4^+ T cells”.

For GDLQTLALEVARE [CP1d], the “binding affinity to I-A^g7 relative to native CP1” value [15] is listed as “enhanced the binding affinity”.

For `CCN(CCO)CCCC(C)Nc1ccnc2cc(Cl)ccc12` (centres unmarked) [hydroxychloroquine], the “autoantibody acquisition and titers of anti-insulin and anti-GAD antibodies” value [16] is given as “reduced” and the “progression to stage 2 T1D” value [16] is given as “did not delay”.
